How the values were obtained:
Format in all cases: in vivo
Phaedon cochleariae = Phaedon cochleariae spray test (Example D, Chinese cabbage leaf-disks); settings: mortality after 6 d
Protocol: Phaedon cochleariae—Spray Test
Solvent: 78.0 parts by weight of acetone • • 1.5 parts by weight of dimethylformamide Emulsifier: 0.5 parts by weight of alkylaryl polyglycolether
(§1) To produce a suitable preparation of active compound, 1 part by weight of active compound is mixed with the stated amount of solvent and emulsifier, and the concentrate is diluted with emulsifier-containing water to the desired concentration. To produce a suitable preparation of a spore suspension the spores are diluted with emulsifier-containing water to the desired concentration.
Chinese cabbage (Brassica pekinensis) leaf-disks are sprayed with a preparation of the active ingredient of the desired concentration. Once dry, the leaf disks are infested with mustard beetle larvae (Phaedon cochleariae).
After the specified period of time, mortality in % is determined 100% means all beetle larvae have been killed and 0% means none of the beetle larvae have been killed. The mortality values determined thus are recalculated using the Colby-formula (see above).

Myzus persicae [1] = assay: Myzus persicae spray test (Example A, pepper leaves); settings: for Efficacy in % after 5 d: mortality after 5 d; for Efficacy in % after 4 d: mortality after 4 d
Protocol: (§2) Myzus persicae—Spray Test
(§3) Solvent: 7 parts by weight of dimethylformamide Emulsifier: 2 parts by weight of alkylaryl polyglycolether
(§4) To produce a suitable preparation of active compound, 1 part by weight of active compound is mixed with the stated amount of solvent and emulsifier, and the concentrate is diluted with emulsifier-containing water to the desired concentration. To produce a suitable preparation of a spore suspension the spores are diluted with emulsifier-containing water to the desired concentration Ammonium salt and/or penetration enhancer in a dosage of 1000 ppm are added to the desired concentration, if necessary.
Pepper leaves (Capsicum annuum) which are heavily infested by the green peach aphid (Myzus persicae) are treated by being sprayed with the preparation of the active compound of the desired concentration.
After the specified period of time, mortality in % is determined 100% means all the aphids have been killed; 0% means none of the aphids have been killed. The mortality values determined thus are recalculated using the Colby-formula (see above).

Aphis gossypii = Aphis gossypii spray test (Example B, cotton leaves); settings: mortality after 1 d
Protocol: Aphis gossypii—Spray Test
as §3, §4
Cotton leaves (Gossypium hirsutum) which are heavily infested by the cotton aphid (Aphis gossypii) are treated by being sprayed with the preparation of the active compound of the desired concentration.
After the specified period of time, the mortality in % is determined 100% means all the aphids have been killed; 0% means none of the aphids have been killed. The mortality values determined thus are recalculated using the Colby-formula (see above).

Myzus persicae [2] = assay: Myzus persicae spray test (Example G, Chinese cabbage leaf-disks); settings: for Efficacy in % after 6 d: mortality after 6 d; for Efficacy in % after 1 d: mortality after 1 d
Protocol: as §2
(§5) Solvent: 78.0 parts by weight acetone • 1.5 parts by weight dimethylformamide Emulsifier: 0.5 parts by weight alkylarylpolyglycolether
as §1
Chinese cabbage (Brassica pekinensis) leaf—disks infected with all instars of the green peach aphid (Myzus persicae) are sprayed with a preparation of the active ingredient of the desired concentration.
After the specified period of time, mortality in % is determined 100% means all aphids have been killed; 0% means none of the aphids have been killed. The mortality values determined thus are recalculated using the Colby-formula (see above).

Tetranychus urticae [3] = assay: Tetranychus urticae spray test, OP-resistant (Example H, French beans); settings: for Efficacy in % after 6 d: mortality after 6 d; for Efficacy in % after 2 d: mortality after 2 d
Protocol: (§6) Tetranychus urticae—Spray Test, OP-Resistant
as §5, §1
French beans (Phaseolus vulgaris) which are heavily infested with all stages of the two spotted spidermite (Tetranychus urticae), are sprayed with a preparation of the active ingredient of the desired concentration.
After the specified period of time, mortality in % is determined 100% means all spider mites have been killed and 0% means none of the spider mites have been killed. The mortality values determined thus are recalculated using the Colby-formula (see above).

Spodoptera frugiperda [4] = assay: Spodoptera frugiperda test (SPODFR) (Example F, maize leaves); settings: 0.075 g ai/ha; mortality after 3 d
Protocol: Spodoptera frugiperda—Test (SPODFR)
Solvent: 7 parts by weight of dimethylformamide Emulsifier: 1 part by weight of alkylaryl polyglycolether
as §4, with “concentration” for “concentration,”
Maize leaves (Zea mais) are treated by being sprayed with the preparation of the active compound of the desired concentration and are infested with caterpillars of the fall army worm (Spodoptera frugiperda). The mortality values determined thus are recalculated using the Colby-formula (see above).
After the specified period of time, mortality in % is determined 100% means all the caterpillars have been killed; 0% means none of the caterpillars have been killed.

Tetranychus urticae [5] = assay: Tetranychus urticae spray test, OP-resistant (Example C, bean plants); settings: 0.8 ppm; mortality after 6 d
Protocol: as §6, §3
as §4, with “concentration” for “concentration,”
Bean plants (Phaseolus vulgaris) which are heavily infested with all stages of the two-spotted spider mite (Tetranychus urticae) are treated by being sprayed with the preparation of the active compound of the desired concentration.
After the specified period of time, mortality in % is determined 100% means all the spider mites have been killed; 0% means none of the spider mites have been killed. The mortality values determined thus are recalculated using the Colby-formula (see above).

Spodoptera frugiperda [6] = assay: Spodoptera frugiperda spray test (Example E, maize leaf sections); settings: 0.032 g ai/ha; mortality after 6 d
Protocol: Spodoptera frugiperda—Spray Test
as §5
as §1, with “preparation of the active compound,” for “preparation of active compound,”, “preparation of spore suspension” for “preparation of a spore suspension”
Maize (Zea mais) leaf sections are sprayed with a preparation of the active ingredient of the desired concentration. Once dry, the leaf sections are infested with fall armyworm larvae (Spodoptera frugiperda).
After the specified period of time, mortality in % is determined 100% means all caterpillars have been killed and 0% means none of the caterpillars have been killed. The mortality values determined thus are recalculated using the Colby-formula (see above).

Compound: Cc1c(F)c(F)c(COC(=O)[C@@H]2[C@H](/C=C(\Cl)C(F)(F)F)C2(C)C)c(F)c1F (racemic) [Tefluthrin]
- Efficacy in % after 6 d (Phaedon cochleariae; 10 g ai/ha): 0%

Compound: CNC(=O)c1cc(Cl)cc(C)c1NC(=O)c1cc(Br)nn1-c1ncccc1Cl [Chlorantraniliprole]
- Efficacy in % after 5 d (Myzus persicae [1]; 8 ppm): 60%
- Efficacy in % after 1 d (Aphis gossypii; 4 ppm): 10%
- Efficacy in % after 1 d (Aphis gossypii; 8 ppm): 50%

Compound: CN/C(=N\[N+](=O)[O-])NCc1cnc(Cl)s1 [Clothianidin]
- Efficacy in % after 4 d (Myzus persicae [1]; 0.125 ppm): 3%
- Efficacy in % after 4 d (Myzus persicae [1]; 0.25 ppm): 10%
- Efficacy in % after 4 d (Myzus persicae [1]; 0.5 ppm): 65%
- Efficacy in % after 6 d (Phaedon cochleariae; 20 g ai/ha): 50%
- Efficacy in % after 1 d (Aphis gossypii; 0.25 ppm): 3%
- Efficacy in % after 1 d (Aphis gossypii; 0.5 ppm): 8%

Compound: CNC(=O)c1cc(C#N)cc(C)c1NC(=O)c1cc(Br)nn1-c1ncccc1Cl [Cyantraniliprole]
- Efficacy in % after 6 d (Myzus persicae [2]; 0.8 g ai/ha): 0%
- Efficacy in % after 6 d (Phaedon cochleariae; 0.8 g ai/ha): 0%

Compound: CC1(C)[C@H](C(=O)O[C@H](C#N)c2cccc(Oc3ccccc3)c2)[C@@H]1C=C(Br)Br [Deltamethrin]
- Efficacy in % after 6 d (Tetranychus urticae [3]; 4 g ai/ha): 0%

Compound: N#Cc1nn(-c2c(Cl)cc(C(F)(F)F)cc2Cl)c(N)c1[S+]([O-])C(F)(F)F (centres unmarked) [Fipronil]
- Efficacy in % after 6 d (Myzus persicae [2]; 100 g ai/ha): 0%
- Efficacy in % after 6 d (Tetranychus urticae [3]; 100 g ai/ha): 0%

Compound: Cc1cc(C(F)(C(F)(F)F)C(F)(F)F)ccc1NC(=O)c1cccc(I)c1C(=O)NC(C)(C)CS(C)(=O)=O [Flubendiamide]
- Efficacy in % after 3 d (Spodoptera frugiperda [4]): 18%

Compound: O=C1C=C(N(Cc2ccc(Cl)nc2)CC(F)F)CO1 [Flupyradifurone]
- Efficacy in % after 6 d (Myzus persicae [2]; 0.8 g ai/ha): 0%

Compound: Cc1cc(F)c(-n2nc(C(F)(F)F)nc2N)cc1[S+]([O-])CC(F)(F)F (centres unmarked) [I277, 1-{2-fluoro-4-methyl-5-[(2,2,2-trifluorethyl)sulfinyl]phenyl}-3-(trifluoromethyl)-1H-1,2,4-triazol-5-amine]
- Efficacy in % after 6 d (Tetranychus urticae [5]): 25%
- Efficacy in % after 6 d (Tetranychus urticae [3]; 4 g ai/ha): 70%

Compound: O=[N+]([O-])NC1=NCCN1Cc1ccc(Cl)nc1 [Imidacloprid]
- Efficacy in % after 1 d (Myzus persicae [2]; 0.16 g ai/ha): 70%

Compound: CNC(=O)Oc1cc(C)c(SC)c(C)c1 [Methiocarb]
- Efficacy in % after 6 d (Myzus persicae [2]; 500 g ai/ha): 0%
- Efficacy in % after 6 d (Tetranychus urticae [3]; 100 g ai/ha): 20%

Compound: Cc1cc(C)c(C2=C(OC(=O)CC(C)(C)C)C3(CCCC3)OC2=O)c(C)c1 [Spiromesifen]
- Efficacy in % after 6 d (Tetranychus urticae [3]; 0.8 g ai/ha): 30%

Compound: CCOC(=O)OC1=C(c2cc(C)ccc2C)C(=O)N[C@]12CC[C@@H](OC)CC2 [Spirotetramat]
- Efficacy in % after 6 d (Myzus persicae [2]; 0.8 g ai/ha): 0%
- Efficacy in % after 6 d (Tetranychus urticae [3]; 0.8 g ai/ha): 0%

Compound: CC(c1ccc(C(F)(F)F)nc1)S(C)(=O)=NC#N (centres unmarked) [Sulfoxaflor]
- Efficacy in % after 6 d (Myzus persicae [2]; 0.16 g ai/ha): 70%

Compound: N#C/N=C1\SCCN1Cc1ccc(Cl)nc1 [Thiacloprid]
- Efficacy in % after 6 d (Myzus persicae [2]; 0.16 g ai/ha): 0%

Compound: CN1COCN(Cc2cnc(Cl)s2)/C1=N\[N+](=O)[O-] [Thiamethoxam]
- Efficacy in % after 1 d (Myzus persicae [2]; 0.8 g ai/ha): 70%

Compound: CS/C(C)=N\OC(=O)N(C)SN(C)C(=O)O/N=C(\C)SC [Thiodicarb]
- Efficacy in % after 6 d (Myzus persicae [2]; 100 g ai/ha): 0%

Compound: CC1(C)C(C=C(Cl)Cl)C1C(=O)OC(C#N)c1ccc(F)c(Oc2ccccc2)c1 (stereo not drawn) [β-Cyfluthrin, beta-Cyfluthrin]
- Efficacy in % after 6 d (Myzus persicae [2]; 0.16 g ai/ha): 0%
- Efficacy in % after 6 d (Tetranychus urticae [3]; 4 g ai/ha): 0%

Compound: Abamectin
- Efficacy in % after 5 d (Myzus persicae [1]; 2 ppm): 30%

Compound: Spinetoram
- Efficacy in % after 6 d (Spodoptera frugiperda [6]): 33%
- Efficacy in % after 2 d (Tetranychus urticae [3]; 4 g ai/ha): 20%

Compound: Spinosad
- Efficacy in % after 2 d (Tetranychus urticae [3]; 4 g ai/ha): 0%
